The results in this text go back to PubChem BioAssay AID1996.

≈ marks a conversion by molar mass, not a printed value.

For the series the following is noted: buffer; pH 7.4; 200.0 µM.
For orientation: kinetic solubility means solubility judged after dilution from a stock solution rather than from solid. For the compound `Cc1ccc2nc(N3CCN(C)CC3)c(C=O)c(=O)n2c1`, the solubility (kinetic) stood at 41.3 µg/mL (≈ 144 µM).

In turn, `Cc1cc(C(=O)OCC(=O)N2CCC(C)CC2)c2ccccc2n1` displayed a kinetic solubility of more than 49 µg/mL.

`CCOC(=O)CSc1nc(-c2ccccc2)ns1` displayed a solubility (kinetic) of 6.3 µg/mL (≈ 22.5 µM). `CN1C(=O)C(O)(C2CCCCCC2=O)c2ccccc21` (configuration not stated): the kinetic solubility is more than 41 µg/mL. The figure for `CC(OC(=O)C1CC2CCCC(C1)C2=O)C(=O)Nc1cccc([N+](=O)[O-])c1` (configuration not stated) is more than 56.2 µg/mL; for `O=C(NCC(c1ccco1)N1CCCCC1)c1ccc([N+](=O)[O-])s1` (configuration not stated) it is more than 52.4 µg/mL; for `N#Cc1c(-c2ccco2)ccn(Cc2cccc(F)c2)c1=O` it is 3.2 µg/mL (≈ 10.9 µM). For the compound `Nc1nc(-c2cc3c(cc2Cl)OCCO3)cs1`, the solubility (kinetic) was found to be 25.9 µg/mL (≈ 96.4 µM). The figure for `O=C(Nc1ccc(Nc2ccccc2)cc1)c1c(Cl)cccc1Cl` is 1.2 µg/mL (≈ 3.36 µM).

As for `CC1(C)N=c2ccc([N+](=O)[O-])c(N)c2=[N+]1[O-]`, the kinetic solubility is 30 µg/mL (≈ 135 µM). The figure for `Cc1ccc(CONC(=O)c2ccccc2)cc1` is more than 36.2 µg/mL; for `Cc1ccc(S(=O)(=O)Nc2ccc(S(=O)(=O)Nc3nccs3)cc2)cc1C` it is more than 63.5 µg/mL; for `O=C(CSc1ncnc2ccccc12)NCC(=O)c1ccccc1` it is 7.1 µg/mL (≈ 21 µM). The figure for `COc1ccc(O)c(CN2CCN(CCc3ccccc3)C(CCO)C2)c1` (configuration not stated) is 54 µg/mL (≈ 146 µM); for `COc1ccc(C)cc1Nc1nc(C)nc2sc(C)cc12` it is 2.3 µg/mL (≈ 7.68 µM). The figure for `O=C(NCCO)C1COc2ccccc2O1` (configuration not stated) is more than 33.5 µg/mL. In turn, `O=c1[nH]c(NCCO)nnc1Cc1ccccc1` gave a solubility (kinetic) of more than 36.9 µg/mL. Compound `Cc1[nH]c2ccc(C(=O)N3CCCC3)cc2c1C` gave a solubility (kinetic) of more than 36.3 µg/mL. The figure for `CC1=C(C(=O)Nc2ccccc2)S(=O)(=O)CCO1` is 38 µg/mL (≈ 142 µM); for `CC(C)C(=O)Nc1ccc(NC(=O)CCc2ccccc2)cn1` it is more than 46.7 µg/mL.

In the case of `CCOC(=O)c1oc2ccccc2c1NC(=O)CCl`, the kinetic solubility was found to be 10.8 µg/mL (≈ 38.3 µM). The figure for `CCN(C(=O)CSc1nc(C)c(C)c(C)n1)C1CCS(=O)(=O)C1` (configuration not stated) is more than 53.6 µg/mL. The figure for `Cc1cccc(NC(=O)CN(C)C(=O)C2CCCC2)c1C` is more than 43.3 µg/mL; for `CCc1noc(C)c1C(=O)N1CCN(S(=O)(=O)c2ccc(Cl)s2)CC1` it is 55.4 µg/mL (≈ 137 µM). The figure for `COc1cc(CNC(C)(C)C)ccc1OCC(=O)NC(C)(C)C` is more than 48.4 µg/mL; for `CCCn1c2ccccc2c2cnn(CC(=O)NCCN(C)C)c(=O)c21` it is more than 53.3 µg/mL; for `CCc1cc(SC#N)cc(C)c1N` it is 25.6 µg/mL (≈ 133 µM). As for `Cc1ccc(S(=O)(=O)NC(=O)N(C)C2CCCCC2)cc1`, the solubility (kinetic) was more than 46.6 µg/mL. The figure for `CC1CCN(C(=O)c2ccc3c(c2)OCO3)CC1` is 36.9 µg/mL (≈ 149 µM); for `CCCNC(=O)CCn1c(=S)oc2ccccc21` it is more than 39.7 µg/mL. The figure for `O=C(O)CNC1c2ccccc2CSc2ccccc21` (configuration not stated) is more than 42.8 µg/mL. The figure for `CC(=O)N(Cc1ccccc1)Cc1nc2sc(C)c(C)c2c(=O)[nH]1` is 47.5 µg/mL (≈ 139 µM); for `Cl.c1ccc2c(c1)nc1n2CCN1CCN1CCCC1` it is more than 49.4 µg/mL. For the compound `CN(CC(=O)Nc1ccccc1Cl)CC(=O)N(C)c1c(N)n(Cc2ccccc2)c(=O)[nH]c1=O`, the kinetic solubility stood at 65.2 µg/mL (≈ 134 µM). For `CC(C)[C@H](NS(=O)(=O)c1cccc(C(F)(F)F)c1)C(=O)OCC(=O)NC(=O)NCc1ccco1`, the solubility (kinetic) is 13.4 µg/mL (≈ 26.5 µM).

Turning to `C[C@]12C=CC(=O)C=C1CC[C@@H]1C2=CC[C@]2(C)[C@@H](C(=O)CN3CCN(c4cc(N5CCCC5)nc(N5CCCC5)n4)CC3)CC[C@@H]12.O=C(O)/C=C\C(=O)O`, the kinetic solubility is 48.2 µg/mL. In the case of `COn1c(-c2ccc(C)cc2)nc2ncccc21`, the solubility (kinetic) was more than 35.9 µg/mL.

In turn, `CCN(CC)S(=O)(=O)c1ccc(N2CCOCC2)c(NC(=O)c2cc(Cl)c3c(c2)OCO3)c1` showed a kinetic solubility of 5.2 µg/mL (≈ 10.5 µM).

In the case of `CCCn1c(SCC(=O)NC2CCC(C)CC2)n[nH]c1=O` (configuration not stated), the solubility (kinetic) is more than 46.9 µg/mL. The figure for `COc1ccc(S(=O)(=O)N2CCC(C)CC2)cc1OC` is 44.8 µg/mL (≈ 150 µM); for `CC(=O)c1ccc(S(=O)(=O)N2CCNCC2)cc1.Cl` it is 45.5 µg/mL; for `CC(C)(C)C(=O)Nc1sc2c(c1C(=O)Nc1ccccn1)CCCC2` it is less than 0.3 µg/mL. The figure for `CC1(C)CC(=O)c2cnc3nc4ccccc4n3c2C1` is 26.6 µg/mL (≈ 100 µM); for `N#Cc1ccc(C(=O)OCC(=O)Nc2cccc(S(=O)(=O)NC3=NCCC3)c2)cc1` it is more than 64 µg/mL; for `CC1SCC(NC(=O)c2ccc(Cl)cc2)CS1` (configuration not stated) it is 39.2 µg/mL (≈ 136 µM). Turning to `Cc1nc2c(oc3ccc(Cl)cc32)c(=O)[nH]1`, the kinetic solubility amounted to 11.9 µg/mL (≈ 50.7 µM). The figure for `Cc1cc(C(F)(F)F)nc(SCCN2CCOCC2)c1C#N` is 43.3 µg/mL (≈ 131 µM). The figure for `COc1ccccc1CNC(=O)N1CCN(c2ccccc2)CC1` is more than 48.8 µg/mL; for `Cn1cccc/c1=N\c1cccc[n+]1C.[I-]` it is more than 49.1 µg/mL; for `O=C(CN1CCN(c2ccccc2F)CC1)NCc1ccc(Cl)cc1` it is 49.1 µg/mL (≈ 136 µM). In turn, `COCc1cc(=O)[nH]c(N2CCN(C(=O)c3ccco3)CC2)n1` gave a kinetic solubility of more than 47.7 µg/mL. Compound `COc1ccc(OCCSc2ncc(CO)n2C)cc1` showed a kinetic solubility of more than 44.2 µg/mL. The compound `O=C(NCCCc1ccccc1)C1CC1` gave a kinetic solubility of more than 30.5 µg/mL.

As to `O=C(NCCCCc1ccccc1)c1ccccc1`, the kinetic solubility is 14.4 µg/mL (≈ 56.8 µM). The figure for `CN1C(=O)c2ccc(C(=O)NCc3ccco3)cc2C1=O` is more than 42.6 µg/mL; for `COc1ccc(OC)c(C(=O)NC2CCSc3ccccc32)c1` (configuration not stated) it is 12.1 µg/mL (≈ 36.7 µM); for `O=S(=O)(NCCc1ccccn1)c1ccc(-c2ccccn2)s1` it is 30.6 µg/mL (≈ 88.6 µM). The figure for `CC(=O)c1ccc(OCCCC(=O)NC2CCCCC2C)cc1` (configuration not stated) is 25.8 µg/mL (≈ 81.3 µM); for `COc1ccc(CNC(=O)COC(=O)c2ccccn2)cc1` it is more than 45 µg/mL. `CC(=O)c1cccc(Oc2ncccn2)c1` returned a solubility (kinetic) of more than 32.1 µg/mL. The figure for `O=C(Nc1cccc(Cl)c1)Nc1cnccn1` is 1.3 µg/mL (≈ 5.23 µM). The figure for `Cc1cccnc1NC(=O)Cn1c(=O)oc2ccccc21` is 41.2 µg/mL (≈ 145 µM); for `CCOc1ccc(NC(=O)COC(=O)CC2CC3CCC2C3)cc1` (configuration not stated) it is 16.9 µg/mL (≈ 51 µM); for `Cc1ccsc1C(=O)OCC(=O)N1CCN(c2ccccc2)CC1` it is more than 51.7 µg/mL. `CN(C)c1nc(Nc2ccc(Cl)c(Cl)c2)nc(N(C)C)n1`: the solubility (kinetic) was less than 0.1 µg/mL. The figure for `COc1cc([N+](=O)[O-])ccc1NC(=O)CN1CCc2cc(OC)c(OC)cc2C1` is 34.1 µg/mL (≈ 84.9 µM); for `CN(C(=S)NC(=O)c1ccc(Cl)cc1)C1CCCCC1` it is 6.4 µg/mL (≈ 20.6 µM). The compound `COc1ccccc1CNC(=O)c1cc2ccccc2o1` came in with a solubility (kinetic) of 10.1 µg/mL (≈ 35.9 µM). The figure for `COc1ccc(CC(=O)NCCc2cnc[nH]2)cc1` is more than 38.9 µg/mL.

`CCOC(=O)C1CCCN(Cc2cc(=O)oc3cc(C)ccc23)C1` (configuration not stated) yielded a kinetic solubility of 40.5 µg/mL (≈ 123 µM). The figure for `CCN(Cc1ccc(Cl)s1)C(=O)c1cccc(OCc2c(C)noc2C)c1` is 16.4 µg/mL (≈ 40.5 µM); for `O=C(CCC(=O)c1ccccc1)NCc1ccccc1` it is more than 40.1 µg/mL. The figure for `CC(C)(C)NC(=O)CSc1nc(N)cc(=O)[nH]1` is more than 38.4 µg/mL; for `O=C(O)c1ccccc1C(=O)N1CCN(S(=O)(=O)c2cccc(C(F)(F)F)c2)CC1` it is more than 66.4 µg/mL.

Consider `CC(Sc1ncccn1)C(=O)NC1CCCC1` (configuration not stated), for which the solubility (kinetic) was more than 37.7 µg/mL. The figure for `O=C(Nc1ccc2c(c1)C(=O)OC2)c1ccccc1Cl` is 41 µg/mL (≈ 143 µM); for `CC1CC(C)(C)N2C(=O)C(=C(C#N)C#N)c3cccc1c32` (configuration not stated) it is 1.2 µg/mL (≈ 4.33 µM). The figure for `Cc1cc(=O)oc2cc(NC(=O)c3cccc(F)c3)ccc12` is less than 0.6 µg/mL.

Regarding `Cc1cccc(NC(=O)C(C)Oc2ccc(C)nc2[N+](=O)[O-])c1` (configuration not stated), the solubility (kinetic) was more than 47.3 µg/mL. On to `CC1CCCN(C(=O)COC(=O)c2cc(Br)ccc2O)C1` (configuration not stated), for which the kinetic solubility was 40.1 µg/mL (≈ 113 µM). The figure for `Cc1ccc(C(O)(CNCc2ccccc2)c2ccccc2)cc1` (configuration not stated) is 26.2 µg/mL (≈ 82.5 µM); for `O=S(=O)(NCc1ccco1)c1cnc(Cl)c(Cl)c1` it is more than 46.1 µg/mL; for `O=C(c1cccc(Cl)c1)N1CCCc2ccccc21` it is 33.6 µg/mL (≈ 124 µM). The figure for `COc1cc2[nH]c(=S)n(Cc3ccc(C)cc3)c(=O)c2cc1OC` is less than 0.4 µg/mL; for `O=C(CCc1c[nH]c2ccccc12)OCc1cccc(C(F)(F)F)c1` it is 1 µg/mL (≈ 2.88 µM); for `Cc1c(Cl)cccc1NC(=S)NCC(O)c1ccccc1` (configuration not stated) it is 46.7 µg/mL (≈ 146 µM).

Compound `CCN(CC)c1nc(N)n(CCSC(=S)N(C)C)c(=O)n1` gave a kinetic solubility of 45.1 µg/mL (≈ 136 µM). Regarding `CNC(=O)c1[nH]cnc1C(=O)Nc1ccc(F)cc1`, the kinetic solubility was 1.7 µg/mL (≈ 6.48 µM). The figure for `Nc1cc(=O)[nH]c(SCC(=O)Nc2ccc(N3CCCCC3)cc2)n1` is 4.8 µg/mL (≈ 13.4 µM); for `CC(=O)Nc1ccc(NC(=O)c2ccc(-c3ccccc3Cl)o2)cc1` it is 0.5 µg/mL (≈ 1.41 µM); for `COc1ccc(C(C)NC(=O)Cc2cccs2)cc1` (configuration not stated) it is 37.1 µg/mL (≈ 135 µM). The figure for `CN(CC(=O)NCc1ccco1)S(=O)(=O)c1ccc(F)cc1` is more than 49 µg/mL. `O=C(NCCN1CCOCC1)Nc1cccc(Cl)c1` had a kinetic solubility of 40.1 µg/mL (≈ 141 µM). The figure for `N#Cc1ccc(C(=O)NC(=S)N2CCOCC2)cc1` is more than 41.3 µg/mL. The figure for `Cc1nc(Cc2ccc(OC(C)C)cc2)[nH]c(=O)c1CC(=O)O` is more than 47.5 µg/mL.

`COc1ccc(CNC(=O)COC(=O)C(CCSC)N2C(=O)c3ccccc3C2=O)cc1` (configuration not stated) came in with a kinetic solubility of more than 68.5 µg/mL. The figure for `COc1ccccc1CC(=O)Nc1cccc(C(=O)Nc2nccs2)c1` is 0.7 µg/mL (≈ 1.91 µM). The figure for `Cc1cccc(OCC(=O)NCCNC(=O)c2ccccn2)c1` is more than 47 µg/mL. The figure for `COc1ccccc1C(=O)Nc1ccc2c(C)cc(=O)oc2c1` is 1.3 µg/mL (≈ 4.2 µM); for `CN(C)c1cccc2c(S(=O)(=O)N3CCCC3)cccc12` it is 34 µg/mL (≈ 112 µM); for `COc1ccccc1OCCNC(=O)CN1C(=O)NC2(CCCCC2)C1=O` it is more than 56.3 µg/mL. Compound `CCOC(=O)c1cccc(NC(=O)CCc2ccccc2)c1` returned a kinetic solubility of 33.1 µg/mL (≈ 111 µM).
